Literature values as cited in paper PMC10872542 (Structure (London, England : 1993), 2023).

System: TRPV5
Conditions: read-out: IC50 of TRPV5 inhibition

Row | IC50 [nM] | Compound
1 | ~3000 | CC(OC(=O)CC1Sc2ccccc2NC1=O)c1nc2scc(-c3ccccc3)c2c(=O)[nH]1 (stereo not drawn) [ZINC9155420]
2 | ~100 | O=C(CCN1C(=O)COc2ccccc21)OCc1nc2scc(-c3ccccc3)c2c(=O)[nH]1 [ZINC17988990]
3 | ~100 | Cl.Cl.Cl.Cl.Cl.Cl.N.N.N.N.N.N.N.N.N.N.N.N.N.N.[O-2].[O-2].[Ru+3].[Ru+3].[Ru+4] [ruthenium red]
